In patent JP2006056855A, “免疫賦活剤、抗腫瘍剤、抗老化剤、抗肥満剤及び皮膚化粧料” (Maruzen Pharmaceutical Co Ltd, priority 2004, dated 2006):
In brackets after ≈: the same amount, converted by molar mass.

Columns and labels:
[1] = target: cyclic AMP phosphodiesterase [サイクリックAMPホスホジエステラーゼ]; test: Cyclic AMP phosphodiesterase activity inhibition test (試験例5), HPLC; type: biochemical; settings: sample concentration at 50% inhibition of cyclic AMP phosphodiesterase activity, by interpolation; pH 7.5, 37℃, 30 min
[2] = tested on: normal human epidermal keratinocytes (NHEK) [正常ヒト皮膚表皮角化細胞(NHEK)]; test: Epidermal keratinocyte proliferation test (試験例4), MTT assay; type: cell-based; settings: 72 h, sample solution 3.125 μg/mL, 3 days, St/Ct×100 (no sample = 100%), read-out: epidermal keratinocyte proliferation promotion rate
[3] = tested on: human normal skin fibroblasts (NB1RGB) [ヒト正常皮膚線維芽細胞(NB1RGB)]; test: Fibroblast proliferation test (試験例3), MTT assay; type: cell-based; settings: 72 h, sample solution 12.5 μg/mL, 100 μL added per well, 3 days, (St−Sb)/(Ct−Cb)×100 (no sample = 100%), read-out: fibroblast proliferation promotion rate
[4] = tested on: human breast cancer-derived cells (MCF-7) [ヒト乳癌由来細胞(MCF−7)]; test: Estrogen-like action test (試験例2), MTT assay; type: cell-based; settings: MCF7, sample solution 3.125 μg/mL, A/B×100 (no sample = 100%), read-out: estrogen-like action rate

## CC1OC2OC3C(OCC(O)C3O)OC(=O)C34CCC(C)(C)CC3C3=CCC5C6(C)CC(O)C(OC7OC(CO)C(O)C(O)C7OC7OCC(OC(=O)CC(C)(O)CC(=O)OC1C(OC1OCC(O)C(O)C1O)C2O)C(O)C7O)C(C)(CO)C6CCC5(C)C3(C)CC4 (stereo not shown) [ツベイモシドI, ツベイモシドI(tubeimoside I)]
[1]
  IC50: 178.9 µg/mL (≈ 136 µM)
[2]
  activity at 3.125 µg/mL: 139.4 ± 1.3%
[3]
  activity at 12.5 µg/mL: 127 ± 2.3%
[4]
  activity at 3.125 µg/mL: 132 ± 3%
